Test results taken from publication PMC10761377 (2023).

Columns and labels:
[1] = tested on: FPAS (fipronil aptamer Short) (DNA, aptamer) AGTTTCTGGAGGACTGGGCGGGGTGACGGTTATG; assay: chronoamperometric binding titration on SPCE (streptavidin-HRP/TMB); conditions: NaCl 100 mM, MgCl2 2 mM; Tris-HCl 20 mM; 30 min; apparent; immobilised compound (amide-linked to poly-2-aminobenzoic acid electrode); logistic fit
[2] = tested on: FPAP (fipronil aptamer with primers) (DNA, aptamer) TGTACCGTCTGAGCGATTCGTACAGTTTCTGGAGGACTGGGCGGGGTGACGGTTATGAGCCAGTCAGTGTTAAGGAGTGC; assay: as above; conditions: NaCl 100 mM, MgCl2 2 mM; Tris-HCl 20 mM; 30 min; apparent; immobilised compound (amide-linked to poly-2-aminobenzoic acid electrode); logistic fit
[3] = tested on: FPAS (fipronil aptamer Short) (DNA, aptamer) AGTTTCTGGAGGACTGGGCGGGGTGACGGTTATG; assay: electrochemical competitive replacement assay (chronoamperometry); conditions: free fipronil displaces 1 µM-loaded aptamer from immobilised fipronil; 1 h

## N#Cc1nn(-c2c(Cl)cc(C(F)(F)F)cc2Cl)c(N)c1S(=O)C(F)(F)F (stereo not drawn)
[1]
  KD: 24.9 ± 1.7 nM
[2]
  KD: 94.3 ± 0.5 nM
[3]
  binding: yes
